In brackets after ≈: the same amount, converted by molar mass. Read-outs that look alike come from different tables or passages of the source.
How the values were obtained:
Type in all cases: cell-based
[1] = tested on: Aerobacter aerogenes; assay: Antibiotic activity in vitro, MIC by gradient plate method; conditions: Klebsiella aerogenes
Experimental: (§1) The antibiotic activity of the compounds of the invention is illustrated by the in vitro data presented in the following Tables I and II for two of the preferred compounds. In the tables, the minimum inhibitory concentrations (MIC) of the test compounds versus the indicated gram-positive and gram-negative microorganisms is presented. The MIC values were determined by the gradient plate method which is essentially the method described by Bryson and Szybalski, Science, 116, 45-46 (1952).
(§2) Table II lists the inhibitory activity in terms of MIC values against clinical isolates of penicillin resistant Staphylococcus microorganisms both in the presence of and in the absence of serum.

[2] = tested on: Escherichia coli; assay: as above
Experimental: as §1, §2

[3] = tested on: Klebsiella pneumoniae; assay: as above
Experimental: as §1, §2

[4] = tested on: Pseudomonas aeruginosa; assay: as above
Experimental: as §1, §2

[5] = tested on: Salmonella heidelberg; assay: as above; conditions: Salmonella enterica
Experimental: as §1, §2

[6] = tested on: Serratia marcescens; assay: as above
Experimental: as §1, §2

[7] = tested on: Shigella sp.; assay: as above
Experimental: as §1, §2

[8] = tested on: Resistant Staphylococcus V-32; assay: Antibiotic activity vs. penicillin resistant Staphylococcus clinical isolates, MIC by gradient plate method
Experimental: as §1, §2

[9] = tested on: Resistant Staphylococcus V-41; assay: as above
Experimental: as §1, §2

[10] = tested on: Resistant Staphylococcus V-84; assay: as above
Experimental: as §1, §2

[11] = tested on: Resistant Staphylococcus X-400; assay: as above
Experimental: as §1, §2

[12] = tested on: Resistant Staphylococcus X1.1; assay: as above
Experimental: as §1, §2

[13] = Staphylococcus, absence of serum (NS), read-out: MIC

Structure (SMILES)	MIC [1] [µg/mL]	MIC [2] [µg/mL]	MIC [3] [µg/mL]	MIC [4] [µg/mL]	MIC [5] [µg/mL]	MIC [6] [µg/mL]	MIC [7] [µg/mL]	MIC ([8]; absence of serum (NS)) [µg/mL]	MIC ([8]; presence of serum (S)) [µg/mL]	MIC ([9]; absence of serum (NS)) [µg/mL]	MIC ([9]; presence of serum (S)) [µg/mL]	MIC ([10]; absence of serum (NS)) [µg/mL]	MIC ([10]; presence of serum (S)) [µg/mL]	MIC [11, 13] [µg/mL]	MIC ([11]; presence of serum (S)) [µg/mL]	MIC ([12]; absence of serum (NS)) [µg/mL]	MIC ([12]; presence of serum (S)) [µg/mL]
Cn1nnnc1SCC1=C(C(=O)O)N2C(=O)C(NC(=O)C(NC(=O)NC(=O)c3ccco3)c3ccc(O)cc3)C2SC1 (stereo not drawn) [Test Compound B, 7-[α-(3-α-furoyl-1-ureido)-α-(4-hydroxyphenyl)acetamido]-3-(1-methyl-1H-tetrazole-5-ylthiomethyl)-3-cephem-4-carboxylic acid]	6.5 (≈ 10.6 µM)	5.8 (≈ 9.44 µM)	6.3 (≈ 10.3 µM)	10.7 (≈ 17.4 µM)	5.8 (≈ 9.44 µM)	14.5 (≈ 23.6 µM)	5.5 (≈ 8.95 µM)	13.7 (≈ 22.3 µM)	> 20	5 (≈ 8.14 µM)	> 20	1 (≈ 1.63 µM)	1	> 20	> 20	1 (≈ 1.63 µM)	1
Cn1nnnc1SCC1=C(C(=O)O)N2C(=O)C(NC(=O)C(NC(=O)NC(=O)c3ccco3)c3ccccc3)C2SC1 (stereo not drawn) [Test Compound A, 7-[α-(3-α-furoyl-1-ureido)-α-phenylacetamido]-3-(1-methyl-1H-tetrazole-5-ylthiomethyl)-3-cephem-4-carboxylic acid]	7.5 (≈ 12.5 µM)	7 (≈ 11.7 µM)	5 (≈ 8.35 µM)	12.3 (≈ 20.5 µM)	6.8 (≈ 11.4 µM)	19.5 (≈ 32.6 µM)	5.5 (≈ 9.19 µM)	4.5 (≈ 7.52 µM)	8	3 (≈ 5.01 µM)	8	0.4 (≈ 0.668 µM)	1	> 20	> 20	0.4 (≈ 0.668 µM)	1
